Laboratory results taken from patent US8993593B2, “N-(4-(6-fluoro-3,4-dihydroisoquinolin-2(1H)-yl)-2,6-dimethylphenyl)-3,3-dimethylbutanamide as potassium channel modulators” (Valeant Pharmaceuticals International, priority 2006, dated 2015).

Assays:
KCNQ1 = KCNQ1 (Homo sapiens, UniProt P51787); assay: Two-electrode voltage-clamp in Xenopus laevis oocytes, KCNQ1; type: cell-based; design: KCNQ1 Block (%): dose or concentration left out as unconfirmed
Protocol: (§1) Female Xenopus laevis extracted ovaries were purchased from eNASCO (LM00935MX, eNASCO Fort Atkinson, Wis.). […] Approximately 50 nl cRNA (about 50 ng) was injected for KCNQ1, KCNQ4, and KCNQ5 using a Nanoject microinjector (Drummond, Broomall, Pa., USA). For co-expression of KCNQ2 and KCNQ3 and of KCNQ1 and KCNE1, cRNA's were mixed in equal molar ratios before injection of approximately 50 nl. […] Oocytes were kept in Culture Barth solution at 19° C. which was changed daily and currents were recorded after 3 to 5 days.
(§2) KCNQ channel currents expressed in Xenopus laevis oocytes were recorded using a two-electrode voltage-clamp. […] The oocytes were placed in custom built perfusion chambers connected to a continuous flow system and impaled with a current electrode and a voltage-clamp electrode pulled from borosilicate glass on a Flaming/Brown Micropipette Puller (Sutter Instruments Co, Novato, Calif., USA).
(§3) All compounds were dissolved in DMSO to obtain concentrated stock solutions. On the day of electrophysiological experiments the stock solutions were thawed and diluted in recording solution to their final concentrations. The final DMSO concentration never exceeded 0.1%. Compound delivery was performed using a custom built multi-barrel apparatus connected to the flow system.
(§4) Data were acquired by means of an Axograph X software (Axograph Scientific, Sydney, AU) and analyzed using Graph Pad Prism (GraphPad Software Inc., CA, USA). […]
(§5) After steady channel current was recorded in the presence of Retigabine at its EC75, recorded oocyte was washed with the recording solution until its steady current returned to its normal level without the presence of any drugs. Then the channel steady current was recorded in the presence of the test compound at its EC75. The percent efficacy was then expressed as: % efficacy=(C2/C 1)×100 where C2 is the recorded steady current in the presence of follow-on compound at its EC75 and C1 is the recorded steady current in the presence of Retigabine at its EC75.

KCNQ2/3 = KCNQ2/3 (Homo sapiens, UniProt O43525+O43526); assay: Two-electrode voltage-clamp in Xenopus laevis oocytes, KCNQ2/3; type: cell-based
Protocol: as §1, §2, §3, §4, §5

KCNQ4 = KCNQ4 (Homo sapiens, UniProt P56696); assay: Two-electrode voltage-clamp in Xenopus laevis oocytes, KCNQ4; type: cell-based
Protocol: as §1, §2, §3, §4, §5

KCNQ5 = KCNQ5 (Homo sapiens, UniProt Q9NR82); assay: Two-electrode voltage-clamp in Xenopus laevis oocytes, KCNQ5; type: cell-based
Protocol: as §1, §2, §3, §4, §5

hERG [1] = molecular target: T1, hERG (Homo sapiens, UniProt Q12809); assay: in vitro
T1 sequence (Q12809 whole entry): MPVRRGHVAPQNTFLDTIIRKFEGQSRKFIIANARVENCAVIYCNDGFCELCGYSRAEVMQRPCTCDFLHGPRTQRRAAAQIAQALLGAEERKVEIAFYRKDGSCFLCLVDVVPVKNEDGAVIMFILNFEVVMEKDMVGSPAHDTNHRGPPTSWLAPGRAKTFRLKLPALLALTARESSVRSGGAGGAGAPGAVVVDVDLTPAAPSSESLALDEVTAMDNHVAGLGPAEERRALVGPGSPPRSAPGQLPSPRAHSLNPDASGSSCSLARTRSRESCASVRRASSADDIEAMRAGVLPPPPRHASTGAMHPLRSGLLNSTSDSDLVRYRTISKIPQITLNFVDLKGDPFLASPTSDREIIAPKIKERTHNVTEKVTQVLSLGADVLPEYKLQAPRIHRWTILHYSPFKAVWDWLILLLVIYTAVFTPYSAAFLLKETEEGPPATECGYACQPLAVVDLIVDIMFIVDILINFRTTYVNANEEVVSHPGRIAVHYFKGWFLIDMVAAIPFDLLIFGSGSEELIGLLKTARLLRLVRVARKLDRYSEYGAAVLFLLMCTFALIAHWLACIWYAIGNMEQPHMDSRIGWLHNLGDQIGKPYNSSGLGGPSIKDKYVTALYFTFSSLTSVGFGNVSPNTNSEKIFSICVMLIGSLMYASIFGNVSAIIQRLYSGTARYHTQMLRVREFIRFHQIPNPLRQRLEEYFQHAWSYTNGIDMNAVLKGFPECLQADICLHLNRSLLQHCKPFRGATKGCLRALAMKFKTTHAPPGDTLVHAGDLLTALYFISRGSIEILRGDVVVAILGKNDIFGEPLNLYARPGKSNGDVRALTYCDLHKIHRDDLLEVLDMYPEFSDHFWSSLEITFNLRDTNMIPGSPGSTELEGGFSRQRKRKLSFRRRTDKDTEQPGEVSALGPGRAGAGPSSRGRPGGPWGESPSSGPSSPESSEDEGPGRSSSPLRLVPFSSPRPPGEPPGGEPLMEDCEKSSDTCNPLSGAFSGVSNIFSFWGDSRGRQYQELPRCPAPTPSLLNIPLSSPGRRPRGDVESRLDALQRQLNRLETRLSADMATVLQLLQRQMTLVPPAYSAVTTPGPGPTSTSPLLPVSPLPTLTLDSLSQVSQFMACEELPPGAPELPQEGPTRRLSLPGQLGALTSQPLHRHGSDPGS

hERG [2] = molecular target: T1, hERG; assay: cell-based

Cc1cc(N2CCc3cc(F)ccc3C2)cc(C)c1NC(=O)CC(C)(C)C [compound A, N-[4-(6-fluoro-3,4-dihydro-1H-isoquinolin-2-yl)-2,6-dimethylphenyl]-3,3-dimethyl butanamide]
KCNQ1 Block (%) (KCNQ1; oocyte expression): 0%
effect on KCNQ1 (cardiac potential) (KCNQ1; selectivity versus KCNQ2-5, in words): not affecting
EC50 (KCNQ2/3): 350 nM
KCNQ2/3 Efficacy Relative to Retigabine (%) (KCNQ2/3; oocyte expression, at EC75): 143%
EC50 (KCNQ4): 630 nM
KCNQ4 Efficacy Relative to Retigabine (%) (KCNQ4; oocyte expression, at EC75): 100%
EC50 (KCNQ5): 350 nM
KCNQ5 Efficacy Relative to Retigabine (%) (KCNQ5; oocyte expression, at EC75): 100%
inhibition at 30 µM (hERG [1]): -0.1%
EC50 (hERG [2]): > 30000 nM
